Reference: US11560400B2, “Salts of diphosphate phosphoramidate of nucleosides as anticancer compounds” (NuCana plc, priority 2017, dated 2023)
Counter-ions that a name gives are not always drawn. Like-named read-outs stand apart in the source and are kept apart here.

How the values were obtained:
HT29 = assay: CellTiterGlo cell viability assay, HT29; format: cell-based; details: Homo sapiens, HT-29, 72 h, HT29, 72 h; for EC50: read-out: Ab EC50; for inhibition at 198 µM: percentage inhibition at the highest concentration tested, read-out: Top Inhibit
Protocol: (§1) A subset of compounds of the invention were assayed for their cytotoxic activity in an array of different solid tumours and haematological malignancies using the following assay.
(§2) In vitro viability assay were performed to assess the effects of compounds on cell viability in selected cell lines over 72 h using the CellTiterGlo (CTG, Promega-G7573) assay. The tests were performed in duplicates with treatment of compounds at 9 points, 3.16 folds titration in 96 well plates over ˜72 h. The compound starting concentrations were 198 μM. Cell viability assay using CellTiterGlo in 96-well plate were performed. Compound treatment 72 h, standard growth conditions, duplicates. Compounds were dissolved to 40 mM with thawed […]. Compounds were serially diluted at 3.16 fold in thawed DMSO, and warmed to 37° C. before being dissolved in media (2 μL+200 μL). After compounds were dissolved in media, media containing compounds were warmed to 37° C. in incubator and then compounds in media were added to cell plates (50 μL+50 μL) in duplicates. The compounds' final concentrations were from 198 μM to 19.8 nM. All compound solubilities were checked and recorded again, then the plates were transferred to CO2 tissue culture incubator immediately and incubated for 3 days. DMSO final concentration is 0.5%. The parent nucleoside in each case was tested as a comparator, as was an exemplary ProTide. The drugs of the ProTide class that were tested were as follows:
(§3) The following cell lines were tested and are referred to in the Table 1 below:
(§4) In Tables 2, 3 and 4, ‘Ab EC50’ refers to the absolute EC50 and ‘Top inhibit’ refers to the percentage inhibition achieved at the highest concentration tested.

HepG2 = assay: CellTiterGlo cell viability assay, HepG2; format: cell-based; details: Homo sapiens, HepG2, 72 h; for EC50: read-out: Ab EC50; for inhibition at 198 µM: percentage inhibition at the highest concentration tested, read-out: Top Inhibit
Protocol: as §1, §2, §3, §4

OVCAR 3 = assay: CellTiterGlo cell viability assay, OVCAR 3; format: cell-based; details: Homo sapiens; for inhibition at 198 µM: OVCAR-3, 72 h, percentage inhibition at the highest concentration tested, read-out: Top Inhibit; for EC50: OVCAR 3, 72 h, read-out: Ab EC50
Protocol: as §1, §2, §3, §4

MCF-7 = assay: CellTiterGlo cell viability assay, MCF-7; format: cell-based; details: Homo sapiens, MCF7, 72 h, MCF-7, 72 h, percentage inhibition at the highest concentration tested; read-out: Top Inhibit
Protocol: as §1, §2, §3, §4

CCRF-CEM = assay: CellTiterGlo cell viability assay, CCRF-CEM; format: cell-based; details: Homo sapiens, 72 h; for EC50: read-out: Ab EC50; for inhibition at 198 µM: percentage inhibition at the highest concentration tested, read-out: Top Inh
Protocol: as §1, §2, §3, §4

MOLT-4 = assay: CellTiterGlo cell viability assay, MOLT-4; format: cell-based; details: Homo sapiens, MOLT-4, 72 h; for inhibition at 198 µM: percentage inhibition at the highest concentration tested, read-out: Top Inh; for EC50: read-out: Ab EC50
Protocol: as §1, §2, §3, §4

K562 = assay: CellTiterGlo cell viability assay, K562; format: cell-based; details: Homo sapiens; for inhibition at 198 µM: percentage inhibition at the highest concentration tested, read-out: Top Inh; for EC50: read-out: Ab EC50
Protocol: as §1, §2, §3, §4

HL-60 = assay: CellTiterGlo cell viability assay, HL-60; format: cell-based; details: Homo sapiens, HL-60, 72 h; for EC50: read-out: Ab EC50; for inhibition at 198 µM: percentage inhibition at the highest concentration tested, read-out: Top Inh
Protocol: as §1, §2, §3, §4

RL = assay: CellTiterGlo cell viability assay, RL; format: cell-based; details: Homo sapiens, 72 h, percentage inhibition at the highest concentration tested, read-out: Top Inh
Protocol: as §1, §2, §3, §4

RPMI-8226 = assay: CellTiterGlo cell viability assay, RPMI-8226; format: cell-based, Human; details: Homo sapiens, RPMI-8226, 72 h; for EC50: read-out: Ab EC50; for inhibition at 198 µM: percentage inhibition at the highest concentration tested, read-out: Top Inh
Protocol: as §1, §2, §3, §4

KG-1 = assay: CellTiterGlo cell viability assay, KG-1; format: cell-based; details: Homo sapiens, KG-1, 72 h; for EC50: read-out: Ab EC50; for inhibition at 198 µM: percentage inhibition at the highest concentration tested, read-out: Top Inhibit
Protocol: as §1, §2, §3, §4

[1] = K562, K 562, 72 h, Table 4 classes

| Structure (SMILES) | inhibition at 198 µM (HT29) | inhibition at 198 µM (HepG2) | inhibition at 198 µM (OVCAR 3) | inhibition at 198 µM (MCF-7) | inhibition at 198 µM (CCRF-CEM) | inhibition at 198 µM (MOLT-4) | inhibition at 198 µM (K562; K562, 72 h) | inhibition at 198 µM (HL-60) | inhibition at 198 µM (RL) | inhibition at 198 µM (RPMI-8226) | inhibition at 198 µM (KG-1) | EC50 (HT29; Table 4 classes) | EC50 (HepG2; Table 4 classes) | EC50 (OVCAR 3; Table 4 classes) | EC50 (CCRF-CEM; Table 4 classes) | EC50 (MOLT-4; Table 4 classes) | EC50 (K562; [1]) | EC50 (HL-60; Table 4 classes) | EC50 (RPMI-8226; Table 4 classes) | EC50 (KG-1; Table 4 classes) | other results |
| --- | --- | --- | --- | --- | --- | --- | --- | --- | --- | --- | --- | --- | --- | --- | --- | --- | --- | --- | --- | --- | --- |
| CC(C)OC(=O)[C@H](C)NP(=O)(Oc1ccccc1)OP(=O)(O)OC[C@H]1O[C@@H](n2cnc3c(N)nc(Cl)nc32)[C@H](F)C1O (stereo partly drawn) [Example 15, 2-Chloro-9-(2′-Deoxy-2′-fluoro-β-D-arabinofuranosyl)adenine-5′-O-[1-phenyl(isopropoxy-L-alaninyl)] Diphosphate Triethylammonium Salt] | 69% | 51% | 41% | 47% | 99% | 90% | 36% | 96% | 49% | 80% | 92% |  |  |  |  |  |  |  |  |  | EC50 (HT29; absolute EC50, numeric values): 330 nM; EC50 (HepG2; absolute EC50, numeric values): 370 nM; EC50 (OVCAR 3; absolute EC50, numeric values): > 198000 nM; EC50 (CCRF-CEM; absolute EC50, numeric values): < 20 nM; EC50 (MOLT-4; absolute EC50, numeric values): 30 nM; EC50 (K562; K562, 72 h, absolute EC50, numeric values): > 198000 nM; EC50 (HL-60; absolute EC50, numeric values): 60 nM; EC50 (RPMI-8226; absolute EC50, numeric values): 30300 nM; EC50 (KG-1; absolute EC50, numeric values): 90 nM |
| COC(=O)[C@H](C)NP(=O)(Oc1ccccc1)OP(=O)(O)OC[C@H]1O[C@@H](n2cnc3c(N)nc(Cl)nc32)[C@H](F)C1O (stereo partly drawn) [Example 16, 2-Chloro-9-(2′-Deoxy-2′-fluoro-β-D-arabinofuranosyl)adenine-5′-O-[1-phenyl(methoxy-L-alaninyl)] Diphosphate Triethylammonium Salt] | 71% | 53% | 44% | 47% | 99% | 97% | 33% | 96% | 49% | 84% | 93% | 200 to 1000 nM | 200 to 1000 nM | > 10000 nM | < 200 nM | < 200 nM | > 10000 nM | < 200 nM | > 10000 nM | < 200 nM |  |
| C[C@H](NP(=O)(Oc1cccc2ccccc12)OP(=O)(O)OC[C@H]1O[C@@H](n2cnc3c(N)nc(Cl)nc32)[C@H](F)C1O)C(=O)OCc1ccccc1 (stereo partly drawn) [Example 17, 2-Chloro-9-(2′-Deoxy-2′-fluoro-β-D-arabinofuranosyl)adenine-5′-O-[1-1-naphthyl(benzoxy-L-alaninyl)] Diphosphate Triethylammonium Salt] | 69% | 52% | 47% | 46% | 99% | 88% | 37% | 96% | 48% | 82% | 92% | 200 to 1000 nM | 200 to 1000 nM | > 10000 nM | < 200 nM | < 200 nM | > 10000 nM | < 200 nM | > 10000 nM | < 200 nM |  |
